Test results reported in US5925730A, “GnRH antagonists” (Ferring BV, priority 1997, dated 1999).
Starred links: 1 amine or outer side, 2 acyl side, 3 side chain; linkers in the order of their positions; H or OH if unused. Non-standard residues stand in square brackets, D forms with d. Residues, ends and D or L forms follow the SMILES beside them. Groups on a side chain read outwards from the residue. dPhe(4-NHCONH2) = NC(=O)Nc1ccc(C[C@@H](N)C(=O)O)cc1; Phe(4-NHCONH2) = NC(=O)Nc1ccc(C[C@H](N)C(=O)O)cc1; dPhe(4-NH2) = Nc1ccc(C[C@@H](N)C(=O)O)cc1; dPhe(4-Cl) = N[C@H](Cc1ccc(Cl)cc1)C(=O)O; Phe(4-NH2) = Nc1ccc(C[C@H](N)C(=O)O)cc1; d2Nal = N[C@H](Cc1ccc2ccccc2c1)C(=O)O; Lys(iPr) = CC(C)NCCCC[C@H](N)C(=O)O; d3Pal = N[C@H](Cc1cccnc1)C(=O)O; CO = O=C([*:1])[*:2]

Key:
[1] = hydrophilicity by RP-HPLC retention time (TEAP pH 7.0 / CH3CN gradient); assay type: physicochemical; conditions: for hydrophilicity compared with Azaline B: RP-HPLC elution
[2] = system: secretion of LH; test: in vivo rat LH suppression test (circulating LH levels in castrated male rats after sc injection); design: species or system castrated male Sprague-Dawley rats; conditions: for effectiveness in suppression of LH compared with Acyline, day 1 through day 3: days 1-3; for effectiveness in suppression of LH compared with Acyline, day 1 through day 4 (96 hours): days 1-4; for suppression of LH compared with Acyline at days 3 and 4 (72 and 96 hours; after the first 2 days): days 3-4; for effectiveness in suppression of LH compared with Acyline, first two days: days 1-2
Experimental: The peptide is assayed in vivo to determine its effectiveness to suppress the secretion of LH in rats. Measurement of circulating LH levels in castrated male Sprague-Dawley rats treated subcutaneously with the peptide is carried out as reported in C. Rivier et al. Biol. Reproduc., 1983, 29, 374-378. The peptides are first dissolved at a concentration of 1.0 or 10 mg/ml in bacteriostatic water and then further diluted in 0.04 M phosphate buffer containing 0.1% BSA. Subsequent dilutions are made in phosphate buffer. The peptides are injected sc into 5 rats, and blood samples (300 μl) are collected under metotane anesthesia. Sera (50 μl) are tested for LH levels in duplicate using reagents provided by the National Pituitary and Hormone Distribution Program of the NIDDK.

methylcarbamoyl-β-D-2Nal-D-4Cpa-D-3Pal-Ser-4Aph(hydroorotyl)-D-4Aph(acetyl)-Leu-Lys(isopropyl)-Pro-D-Ala-NH2 [Example 1J]
hydrophilicity compared with Azaline B [1]: more hydrophilic than Azaline B | duration of bioactivity for the suppression of LH (rating in words) ([2]; 50 micrograms sc): very long-acting | how much more effective than Acyline in suppression of LH after 96 hours ([2]; 50 micrograms sc, 96 hours): ~50% | effectiveness in suppression of LH compared with Acyline, day 1 through day 3 ([2]; 50 micrograms sc): about as effective as Acyline

Ac-D-2Nal-D-4Cpa-D-3Pal-Ser-4Aph(hydroorotyl)-D-4Amf(MeCbm)-Leu-ILys-Pro-D-Ala-NH2 [Example 4]
duration of bioactivity for the suppression of LH (rating in words) ([2]; 50 micrograms sc): very long-acting | suppression of LH secretion compared with Acyline (time not given) ([2]; 50 micrograms sc): better suppression of LH secretion than Acyline

Ac-β-D-2Nal-D-4Cpa-D-3Pal-Ser-4Amf(hydroorotyl)-D-4Aph(acetyl)-Leu-Lys(isopropyl)-Pro-D-Ala-NH2 [Example 1F]
duration of bioactivity for the suppression of LH (rating in words) ([2]; 50 micrograms sc): long-acting | effectiveness in suppression of LH compared with Acyline, day 1 through day 4 (96 hours) ([2]; 50 micrograms sc): about as effective as Acyline

Acetyl-β-D-2Nal-D-4Cpa-D-3Pal-Ser-4Aph(hydroorotyl)-D-3Pal-Leu-Lys(isopropyl)-Pro-D-Ala-NH2 [Example 1K]
duration of bioactivity for the suppression of LH (rating in words) ([2]; 50 micrograms sc): very long-acting | LH levels after 96 hours as percentage of the LH levels of rats injected with Acyline ([2]; 50 micrograms sc, 96 hours, comparator Acyline 50 micrograms): about 35% | effectiveness in suppression of LH compared with Acyline, day 1 through day 3 ([2]; 50 micrograms sc): about as effective as Acyline

Ac-D-2Nal-D-4Cpa-D-3Pal-Ser-4Aph(hydroorotyl)-D-Cit-Leu-ILys-Pro-D-Ala-NH2 [Example 2]
hydrophilicity compared with Cetrorelix [1]: more hydrophilic than Cetrorelix | suppression of LH at 3 days (comparator apparently Cetrorelix) ([2]; tested as in Example 1, 3 days): marginally better | suppression of LH at 96 hours (comparator apparently Cetrorelix) ([2]; tested as in Example 1, 96 hours): substantially better | duration of bioactivity for suppression of LH secretion compared with Cetrorelix ([2]; tested as in Example 1, dose not given): as long duration of bioactivity as Cetrorelix

Ac-β-D-2Nal-D-Cpa-D-3Pal-Ser-4Aph(D/L-hydroorotyl)-D-4Aph(acetyl)-Leu-Lys(isopropyl)-Pro-D-Ala-NH2 [Example 1C]
duration of bioactivity for the suppression of LH (rating in words) ([2]; 50 micrograms sc): long-acting | effectiveness in suppression of LH compared with Acyline, day 1 through day 4 (96 hours) ([2]; 50 micrograms sc): about as effective as Acyline

Ac-β-D-2Nal-D-Cpa-D-3Pal-Ser-4Aph(D-hydroorotyl)-D-4Aph(acetyl)-Leu-Lys(isopropyl)-Pro-D-Ala-NH2 [Example 1D]
duration of bioactivity for the suppression of LH (rating in words) ([2]; 50 micrograms sc): long-acting | effectiveness in suppression of LH compared with Acyline, day 1 through day 4 (96 hours) ([2]; 50 micrograms sc): about as effective as Acyline

Ac-D-2Nal-D-4Cpa-D-3Pal-Ser-4Aph(L-Imz)-D-4Amf(carbamoyl)-Leu-ILys-Pro-D-Ala-NH2 [Example 3B]
duration of bioactivity for the suppression of LH (rating in words) ([2]; 50 micrograms sc): long duration | suppression of LH compared with Acyline at 96 hours / 4 days (after day 3) ([2]; 50 micrograms sc, 96 hours): somewhat superior | effectiveness in suppression of LH compared with Acyline, day 1 through day 3 ([2]; 50 micrograms sc): substantially the same as Acyline

Ac-β-D-2Nal-D-Cpa-D-3Pal-Ser-4Aph(hydroorotyl)-D-4Aph(acetyl)-Leu-Lys(isopropyl)-Pro-D-Ala-NH2 [Example 1B]
duration of bioactivity for the suppression of LH (rating in words) ([2]; 50 micrograms sc): very long-acting | effectiveness in suppression of LH compared with Acyline, day 1 through day 4 (96 hours) ([2]; 50 micrograms sc): about as effective as Acyline

Ac-β-D-2Nal-D-4Cpa-D-3Pal-Ser-4Aph(hydroorotyl)-D-4Aph(hydroorotyl)-Leu-Lys(isopropyl)-Pro-D-Ala-NH2 [Example 1G]
hydrophilicity compared with Azaline B [1]: more hydrophilic than Azaline B | duration of bioactivity for the suppression of LH (rating in words) ([2]; 50 micrograms sc): long-acting | effectiveness in suppression of LH compared with Acyline, day 1 through day 4 (96 hours) ([2]; 50 micrograms sc): about as effective as Acyline

Ac-D-2Nal-D-4Cpa-D-3Pal-Ser-4Aph(D-hydroorotyl)-D-4Amf(Ac)-Leu-ILys-Pro-D- Ala-NH2 [Example 5A]
suppression of LH compared with Acyline at 96 hours / 4 days (after day 3) ([2]; 50 micrograms sc, 96 hours): somewhat superior to Acyline | effectiveness in suppression of LH compared with Acyline, day 1 through day 3 ([2]; 50 micrograms sc): substantially the same as Acyline

Ac-β-D-2Nal-D-4Cpa-D-3Pal-Ser-4Amf(hydroorotyl)-D-4Aph(methylcarbamoyl)-Leu-Lys(isopropyl)-Pro-D-Ala-NH2 [Example 6B]
activity in suppression of LH secretion compared with Acyline after 1 day ([2]; 50 micrograms sc): as active as Acyline | activity in suppression of LH secretion compared with Acyline after 2 days ([2]; 50 micrograms sc): about as active | suppression of LH compared with Acyline at days 3 and 4 (72 and 96 hours; after the first 2 days) ([2]; 50 micrograms sc): significantly lesser degree of suppression

Ac-β-D-2Nal-D-4Cpa-D-3Pal-Ser-4Aph(hydroorotyl)-D-4Aph(D-hydroorotyl)-Leu-Lys(isopropyl)-Pro-D-Ala-NH2 [Example 1H]
hydrophilicity compared with Azaline B [1]: more hydrophilic than Azaline B | duration of bioactivity for the suppression of LH (rating in words) ([2]; 50 micrograms sc): very long-acting | suppression of LH compared with Acyline at 96 hours / 4 days (after day 3) ([2]; 50 micrograms sc, 96 hours): substantially more effective than Acyline | effectiveness in suppression of LH compared with Acyline, day 1 through day 3 ([2]; 50 micrograms sc): about as effective as Acyline

CNC(=O)Nc1ccc(C[C@H](NC(=O)[C@H](CO)NC(=O)[C@@H](Cc2cccnc2)NC(=O)[C@@H](Cc2ccc(Cl)cc2)NC(=O)[C@@H](Cc2ccc3ccccc3c2)NC(C)=O)C(=O)N[C@H](Cc2ccc(NC(=O)NC)cc2)C(=O)N[C@@H](CC(C)C)C(=O)N[C@@H](CCCCNC(C)C)C(=O)N2CCC[C@H]2C(=O)N[C@H](C)C(N)=O)cc1 [Example 1M, Ac-β-D-2Nal-D-4Cpa-D-3Pal-Ser-4Aph(methylcarbamoyl)-D-4Aph(methylcarbamoyl)-Leu-Lys(isopropyl)-Pro-D-Ala-NH2] (Ac-[d2Nal][dPhe(4-Cl)][d3Pal]S[Phe(4-NH2)]([CO-NHMe])[dPhe(4-NH2)]([CO-NHMe])L[Lys(iPr)]P[dA]-NH2)
effectiveness in suppression of LH compared with Acyline, first two days ([2]; 50 micrograms sc): about as effective as Acyline | suppression of LH compared with Acyline at days 3 and 4 (72 and 96 hours; after the first 2 days) ([2]; 50 micrograms sc): begins to drop off somewhat

Ac-D-2Nal-D-4Cpa-D-3Pal-Ser-4Aph(D-hydroorotyl)-D-4Amf(Cbm)-Leu-ILys-Pro-D-Ala-NH2 [Example 5]
effectiveness in suppression of LH compared with Acyline, first two days ([2]; 50 micrograms sc): about as long as Acyline | suppression of LH compared with Acyline at days 3 and 4 (72 and 96 hours; after the first 2 days) ([2]; 50 micrograms sc): some lesser degree of suppression

Ac-β-D-2Nal-D-4Cpa-D-3Pal-Ser-4Amf(D-hydroorotyl)-D-4Aph(acetyl)-Leu- Lys(isopropyl)-Pro-D-Ala-NH2 [Example 6C]
activity in suppression of LH secretion compared with Acyline after 3 days ([2]; 50 micrograms sc, 3 days): substantially less effective than Acyline | suppression of LH compared with Acyline at 96 hours / 4 days (after day 3) ([2]; 50 micrograms sc, 96 hours): continues to significantly drop in biopotency | effectiveness in suppression of LH compared with Acyline, first two days ([2]; 50 micrograms sc): substantially as effective

Ac-β-D-2Nal-D-4Cpa-D-3Pal-Ser-4Amf(hydroorotyl)-D-4Aph(carbamoyl)-Leu-Lys(isopropyl)-Pro-D-Ala-NH2 [Example 6A]
activity in suppression of LH secretion compared with Acyline after 1 day ([2]; 50 micrograms sc): as active as Acyline | activity in suppression of LH secretion compared with Acyline after 2 days ([2]; 50 micrograms sc): nearly as active | activity in suppression of LH secretion compared with Acyline after 3 days ([2]; 50 micrograms sc, 3 days): somewhat less active | suppression of LH compared with Acyline at 96 hours / 4 days (after day 3) ([2]; 50 micrograms sc, 96 hours): about the same activity as Acyline

Ac-D-2Nal-D-4Cpa-D-3Pal-Ser-4Aph(D/L-2-imidazolidone-4-carbonyl)-D-4Aph(Ac)-Leu-ILys-Pro-D-Ala-NH2 [Example 3]
duration of bioactivity for the suppression of LH (rating in words) ([2]; 50 micrograms sc): long duration | suppression of LH compared with Acyline at days 3 and 4 (72 and 96 hours; after the first 2 days) ([2]; 50 micrograms sc): marginally better

Ac-β-D-2Nal-D-4Cpa-D-3Pal-Ser-4Amf(hydroorotyl)-D-4Amf(acetyl)-Leu-Lys(isopropyl)-Pro-D-Ala-NH2 [Example 6]
duration of bioactivity for the suppression of LH (rating in words) ([2]; 50 micrograms sc): long-acting | effectiveness in suppression of LH compared with Acyline, first two days ([2]; 50 micrograms sc): about the same as Acyline | suppression of LH compared with Acyline at days 3 and 4 (72 and 96 hours; after the first 2 days) ([2]; 50 micrograms sc): nearly equal to that of Acyline

CC(=O)N[C@H](Cc1ccc2ccccc2c1)C(=O)N[C@H](Cc1ccc(Cl)cc1)C(=O)N[C@H](Cc1cccnc1)C(=O)N[C@@H](CO)C(=O)N[C@@H](Cc1ccc(NC(N)=O)cc1)C(=O)N[C@H](Cc1ccc(NC(N)=O)cc1)C(=O)N[C@@H](CC(C)C)C(=O)N[C@@H](CCCCNC(C)C)C(=O)N1CCC[C@H]1C(=O)N[C@H](C)C(N)=O [Example 1L, Ac-β-D-2Nal-D-4Cpa-D-3Pal-Ser-4Aph(carbamoyl)-D-4Aph(carbamoyl)-Leu-Lys(isopropyl)-Pro-D-Ala-NH2] (Ac-[d2Nal][dPhe(4-Cl)][d3Pal]S[Phe(4-NHCONH2)][dPhe(4-NHCONH2)]L[Lys(iPr)]P[dA]-NH2)
duration of bioactivity for the suppression of LH (rating in words) ([2]; 50 micrograms sc): long-acting | effectiveness in suppression of LH compared with Acyline, day 1 through day 4 (96 hours) ([2]; 50 micrograms sc): about as effective as Acyline
